What all share (test): NCI tumour cell line growth inhibition, 48 h
Assay [1] deals with 786-0 renal.
In assay [2] the test system is K-562 leukemia.
Assay [3] concerns NCI-H23 lung.
In assay [4] the test system is NCI-H522 lung.
Assay [5] has as its system OVCAR-5 ovarian.
Assay [6] concerns SF-268 CNS.
The subject of assay [7] is SF-539 CNS.
Assay [8] concerns SK-MEL-28 melanoma.
The subject of assay [9] is SK-OV-3 ovarian.
The subject of assay [10] is HL-60(TB) leukemia.

This passage reports TGI and GI50 results from PubChem BioAssay (NCI).

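Where inhibition never reached the appropriate level, the endpoint shown equals the highest concentration tested. Otherwise, values were interpolated linearly from a five-concentration, 48-hour dose response in 96-well plates. Abbreviation: GI50, concentration required for 50% inhibition of growth. At the TGI there is no net growth.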

On to `O=C1C=CC(=Nc2cccc3c(N=C4C=CC(=O)O4)cccc23)O1`, for which the TGI is 34.5 µM in assay [1]; 55.6 µM in assay [2]; above 100 µM in [3]; 34.3 µM in assay [4]; above 100 µM in [5]; above 100 µM in assay [6]. Besides, the TGI in assay [7] was 36.1 µM; in assay [8] it was above 100 µM; in [9], above 100 µM.
`CC[C@]1(O)CC2CN(CCc3c([nH]c4ccccc34)[C@@](C(=O)OC)(c3cc4c(cc3OC)N(C=O)[C@H]3[C@@](O)(C(=O)OC)[C@H](OC(C)=O)[C@]5(CC)C=CCN6CC[C@]43[C@@H]65)C2)C1` (stereo not given in full): the GI50 in assay [1] is 0.014 µM; in assay [2], below 0.005 µM; in [3], below 0.005 µM; in assay [4], below 0.005 µM; in assay [5], 0.0253 µM; in [6], below 0.005 µM. Besides, the GI50 in assay [7], in [8] and in [9] was below 0.005 µM each time. The TGI in assay [1] is above 22.5 µM; in [2], above 50 µM; in [3] it was above 50 µM; in assay [4], below 0.005 µM; in assay [5] it was above 50 µM; in [6], above 50 µM. The figures for the TGI in assay [7], in [8] and in [9] were above 17.9 µM, above 50 µM and 0.0185 µM, respectively.
As for `CC(=O)Nc1ccc(/C=C2\N=C(c3ccccc3)OC2=O)cc1`, the TGI in assay [1], in assay [10], in assay [2], in assay [3], in assay [5] and in [6] was above 100 µM throughout. In addition, the TGI in assay [8] and in [9] was above 100 µM in each case.
Turning to `CC(=O)OCC1OC(OCc2ccccc2)C(Br)C(OC(C)=O)C1OC(C)=O` (stereo not given), the TGI in assay [1], in assay [10], in assay [2], in [3], in [4] and in assay [5] was above 100 µM each time. The TGI in [6], in assay [7] and in assay [8] was above 100 µM each time.
Regarding `COc1ccc(-c2[nH]nc(N)c2-c2cc(OC)c3c(c2)OCO3)cc1`, the GI50 in assay [1] is 7.82 µM; in assay [10], 2.89 µM; in assay [2], 1.87 µM; in assay [3], 3.87 µM; in assay [5], 16 µM; in assay [6] it was 4.74 µM. The GI50 is 12.8 µM in [7], 6.3 µM in assay [8] and 5.74 µM in [9]. In addition, the TGI in assay [1] is above 100 µM; in [10], 10.3 µM; in [2] it was above 100 µM; in assay [3] it was above 100 µM; in assay [5] it was above 100 µM; in assay [6], above 100 µM. Further, the TGI in assay [7] was 48.2 µM; in assay [8], above 100 µM; in assay [9], above 100 µM.
`O=S(=O)(c1ccccc1)N1CN2CN(C1)CN(S(=O)(=O)c1ccccc1)C2`: the TGI in assay [1], in assay [10], in assay [2], in assay [3], in assay [5] and in assay [7] was above 100 µM throughout. Also, the TGI in assay [8] and in [9] was above 100 µM throughout.
Take `CCOC(=O)C(NO)C(Sc1ccccc1)c1ccc(OC)cc1` (stereo not given): the TGI in assay [1], in assay [3], in assay [4], in assay [5], in assay [6] and in assay [7] was above 100 µM throughout. For the same compound, the TGI in [8] and in assay [9] was above 100 µM each time.
On to `CCOc1ccc(OCC)c([P+](c2ccccc2)(c2ccccc2)c2ccccc2)c1`, for which the TGI amounted to 15.6 µM in assay [1]; 0.529 µM in assay [10]; 17 µM in assay [2]; 1.17 µM in assay [3]; 6.91 µM in assay [5]; 24.4 µM in assay [6]. Moreover, the values for the TGI in assay [7] and in assay [8] were 8.77 µM and 16.8 µM, respectively.
As to `CCN(CC)c1ccc2nc3c4ccccc4c(=O)cc-3n(-c3ccccc3)c2c1`, the GI50 in assay [1] is 2.66 µM; in [10] it was 0.273 µM; in [2], 2.41 µM; in assay [3] it was 2.18 µM; in [5] it was 2.92 µM; in [6], 2.85 µM. For the same compound, the GI50 is 2.49 µM in assay [7], 2.05 µM in [8] and 1.91 µM in assay [9]. In addition, the TGI in assay [1] is 8.86 µM; in assay [10] it was 0.821 µM; in [2], above 100 µM; in assay [3], 9.09 µM; in [5], above 100 µM; in assay [6] it was 12.9 µM. Besides, the values for the TGI in assay [7], in assay [8] and in assay [9] were 6.8 µM, 7.07 µM and 5.92 µM, respectively.
Turning to `COc1ccc2c(c1)[n+](=O)c(C(=O)C/C(=N/NC(=O)C[N+](C)(C)C)C(=O)Nc1cccc(C)c1C)c(C)n2O`, the TGI in assay [1], in assay [2], in assay [3], in assay [4], in assay [5] and in assay [6] was above 100 µM each time. Also, the TGI in assay [7], in assay [8] and in assay [9] was above 100 µM in each case.
On to `O=Cc1c(-c2ccccc2)[nH]c2ccccc2c1=O`, for which the TGI in [1], in assay [3], in [4], in assay [5], in [6] and in assay [7] was above 100 µM in each case. Besides, the TGI in assay [8] and in [9] was above 100 µM in each case.
As to `CN(C)CCn1cnc2ncccc2c1=O`, the TGI in [1], in assay [2], in [3], in assay [4], in assay [5] and in assay [6] was above 100 µM in each case. Also, the TGI in [7], in assay [8] and in assay [9] was above 100 µM each time.
In the case of `COc1cc(/C=C/C(=O)/C=C/c2cc3ccc(Cl)cc3n(Cc3ccccc3)c2=O)ccc1O`, the GI50 in assay [1] is 1.78 µM; in assay [2], 1.89 µM; in assay [3], 1.79 µM; in assay [4] it was 1.67 µM; in [5] it was 2.65 µM; in assay [6], 2.16 µM. Further, the figures for the GI50 in [7], in assay [8] and in [9] were 1.62 µM, 1.85 µM and 5.95 µM, respectively. For the same compound, the TGI in [1] was 3.58 µM; in assay [2], above 100 µM; in assay [3], 4.65 µM; in assay [4], 3.5 µM; in [5], 5.78 µM; in [6], 7.47 µM. The TGI in [7] was 3.53 µM; in [8] it was 5.53 µM; in assay [9], 57.1 µM.
Take `COc1ccc(S(=O)(=O)N[C@H](C(=O)O)c2ccccc2)cc1`: the TGI in assay [1], in [2], in [3], in assay [5], in assay [6] and in [7] was above 100 µM each time. Besides, the TGI in [8] and in assay [9] was above 100 µM in each case.
With `c1ccc(-c2n(Cc3ccc4ccccc4c3)cc[n+]2Cc2ccc3ccccc3c2)cc1`, the GI50 in assay [1] is 1.46 µM; in assay [3] it was 0.775 µM; in [5], 1.36 µM; in assay [7], 1.45 µM; in assay [8] it was 1.14 µM; in [9] it was 1.49 µM. Further, the TGI in assay [1] was found to be 3.02 µM; in assay [3], 2.35 µM; in assay [5] it was 2.75 µM; in [7] it was 2.81 µM; in [8], 2.53 µM; in [9], 2.89 µM.
Take `COc1cccc2nc3ccccc3nc12`: the TGI in assay [1], in [10], in assay [2], in [3], in assay [5] and in [6] was above 100 µM throughout. In addition, the TGI in [7], in assay [8] and in assay [9] was above 100 µM in each case.
With `C/C(=N\n1c(O)c(C#N)cc(C#N)c1=O)c1ccncc1`, the GI50 in [1], in assay [2], in assay [3], in assay [4], in assay [5] and in [6] was above 100 µM in each case. Moreover, the GI50 in assay [8] and in assay [9] was above 100 µM each time. In addition, the TGI in assay [1], in [2], in assay [3], in [4], in [5] and in assay [6] was above 100 µM in each case. Further, the TGI in assay [8] and in assay [9] was above 100 µM throughout.
`COC1OC(CBr)C(OC(=O)c2ccccc2)C(OS(=O)(=O)c2ccc(C)cc2)C1Br` (stereo not given): the TGI in [1], in assay [10], in assay [2], in [3], in assay [4] and in [6] was above 100 µM throughout. Besides, the TGI in assay [7] and in assay [8] was above 100 µM in each case.
For the compound `O=C1c2cccnc2C(=O)c2c1c(C(=O)NCCn1ccnc1)c1ccccn21`, the GI50 in [1] was 5.47 µM; in assay [2] it was 4.39 µM; in [3], 1.18 µM; in [4], 1.82 µM; in assay [5] it was 4.1 µM; in assay [6], 2.86 µM. In addition, the GI50 in [7] was 2.45 µM; in assay [8] it was 4.66 µM; in [9], 8.88 µM. Also, the TGI was 37.6 µM in assay [1]; above 100 µM in assay [2]; 4.21 µM in [3]; 4.67 µM in assay [4]; 24.2 µM in assay [5]; 16.8 µM in assay [6]. Also, the results for the TGI in [7], in assay [8] and in [9] were 6.47 µM, 20.7 µM and 21.3 µM, respectively.
As to `CN(NC1OC(CO)C(O)C(O)C1O)c1ccccc1` (stereo not given), the TGI in assay [1], in [10], in assay [2], in assay [3], in assay [4] and in assay [5] was above 100 µM throughout. Besides, the TGI in assay [6] and in assay [8] was above 100 µM in each case.
For `COC1[C@H](NC(=O)OC(C)(C)C)C(=O)N1Cc1ccccc1` (stereo not given in full), the TGI in assay [1], in assay [10], in [2], in assay [3], in assay [5] and in assay [6] was above 100 µM each time. Further, the TGI in assay [7], in assay [8] and in assay [9] was above 100 µM in each case.
For `Clc1ccc(OCc2nnc3n2N=C(c2ccc(Br)cc2)CS3)cc1`, the TGI in assay [1] was above 100 µM; in [10], above 100 µM; in assay [2] it was above 100 µM; in assay [3] it was above 100 µM; in assay [5], above 100 µM; in [7], 24.5 µM. The TGI was above 100 µM in assay [8] and 34.6 µM in assay [9].
Regarding `CCN(CC)CC(=O)NC1c2ccccc2Oc2c(C)cccc21` (stereo not given), the TGI in [1], in assay [10], in [2], in assay [3], in assay [5] and in assay [6] was above 100 µM throughout. Besides, the TGI in [7], in assay [8] and in assay [9] was above 100 µM in each case.
Regarding `O=C(O)c1c(Cl)c(Cl)c(Cl)c(Cl)c1C(=O)Nc1ccc2cn[nH]c2c1`, the TGI in assay [1], in [2], in [3], in [4], in assay [5] and in [6] was above 100 µM throughout. Also, the TGI in assay [7], in assay [8] and in assay [9] was above 100 µM throughout.
Consider `COc1ccc(-c2ccccc2)c2[nH]c3c(c12)CCNC3=O`, for which the TGI in assay [1], in assay [10], in [2], in assay [3], in [4] and in assay [5] was above 100 µM in each case. For the same compound, the TGI in [6] and in assay [7] was above 100 µM in each case.
